The source made the active and inactive calls.
Columns and labels:
[1] = target: T1, Aldehyde dehydrogenase, mitochondrial (Homo sapiens) (UniProt P05091); assay: Effect on recombinant human ALDH2 using propionaldehyde as substrate at 20 uM preincubated for 2 mins with NAD+ followed by substrate addition by UV-Vis spectrophotometric analysis
T1 sequence (whole entry): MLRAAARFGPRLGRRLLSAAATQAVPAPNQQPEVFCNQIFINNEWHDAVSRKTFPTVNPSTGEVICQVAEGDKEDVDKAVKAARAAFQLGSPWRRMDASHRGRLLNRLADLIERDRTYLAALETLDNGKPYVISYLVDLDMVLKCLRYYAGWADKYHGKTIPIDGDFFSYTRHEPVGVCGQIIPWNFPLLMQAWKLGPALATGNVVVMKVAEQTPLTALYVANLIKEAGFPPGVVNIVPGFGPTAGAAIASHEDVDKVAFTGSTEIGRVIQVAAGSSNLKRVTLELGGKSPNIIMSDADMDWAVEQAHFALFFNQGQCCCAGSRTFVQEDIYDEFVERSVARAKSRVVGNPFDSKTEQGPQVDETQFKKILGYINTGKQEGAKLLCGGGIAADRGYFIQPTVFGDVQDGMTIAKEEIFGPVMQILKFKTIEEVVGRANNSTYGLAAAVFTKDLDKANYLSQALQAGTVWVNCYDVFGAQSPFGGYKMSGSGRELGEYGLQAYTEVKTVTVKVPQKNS

[2] = target: T2, Succinate-semialdehyde dehydrogenase, mitochondrial (Homo sapiens) (UniProt P51649); assay: Effect on human ALDH5A1 at 20 uM preincubated for 2 mins with NAD+ followed by aldehyde substrate addition
T2 sequence (whole entry): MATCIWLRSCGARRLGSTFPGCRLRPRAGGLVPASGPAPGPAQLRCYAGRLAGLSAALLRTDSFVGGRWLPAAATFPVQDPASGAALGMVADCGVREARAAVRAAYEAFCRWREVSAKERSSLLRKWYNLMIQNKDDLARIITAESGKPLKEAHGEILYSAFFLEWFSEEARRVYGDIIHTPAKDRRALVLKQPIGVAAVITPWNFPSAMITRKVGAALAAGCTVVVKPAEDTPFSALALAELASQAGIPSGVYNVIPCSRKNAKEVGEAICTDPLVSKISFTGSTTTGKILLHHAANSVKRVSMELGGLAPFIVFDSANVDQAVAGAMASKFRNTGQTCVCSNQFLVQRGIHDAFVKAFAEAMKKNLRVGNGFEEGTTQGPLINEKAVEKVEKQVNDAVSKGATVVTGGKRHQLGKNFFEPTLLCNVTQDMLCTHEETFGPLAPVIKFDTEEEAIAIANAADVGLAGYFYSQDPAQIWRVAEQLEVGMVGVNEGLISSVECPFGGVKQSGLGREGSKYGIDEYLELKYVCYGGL

[3] = target: T3, Aldehyde dehydrogenase X, mitochondrial (Homo sapiens) (UniProt P30837); assay: Effect on recombinant human ALDH1B1 using propionaldehyde as substrate at 20 uM preincubated for 2 mins with NAD+ followed by substrate addition by UV-Vis spectrophotometric analysis
T3 sequence (whole entry): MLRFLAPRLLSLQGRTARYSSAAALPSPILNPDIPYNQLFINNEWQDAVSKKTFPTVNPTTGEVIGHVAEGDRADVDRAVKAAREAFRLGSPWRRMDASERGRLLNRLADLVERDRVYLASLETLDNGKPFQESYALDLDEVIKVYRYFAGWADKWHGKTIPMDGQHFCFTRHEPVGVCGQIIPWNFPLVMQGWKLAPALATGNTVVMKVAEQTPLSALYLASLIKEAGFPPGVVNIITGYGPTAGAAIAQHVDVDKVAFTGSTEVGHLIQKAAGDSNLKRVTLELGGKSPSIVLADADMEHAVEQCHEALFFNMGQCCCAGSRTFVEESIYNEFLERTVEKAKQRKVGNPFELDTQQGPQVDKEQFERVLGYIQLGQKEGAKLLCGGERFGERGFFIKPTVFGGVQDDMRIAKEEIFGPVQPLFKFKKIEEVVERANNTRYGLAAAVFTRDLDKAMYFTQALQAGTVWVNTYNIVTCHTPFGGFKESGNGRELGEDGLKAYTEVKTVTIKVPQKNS

[4] = target: T4, Cytosolic 10-formyltetrahydrofolate dehydrogenase (Rattus norvegicus) (UniProt P28037); assay: Effect on rat carboxy terminal ALDH domain of ALDH1L1 at 20 uM preincubated for 2 mins with NAD+ followed by aldehyde substrate addition
T4 sequence (whole entry): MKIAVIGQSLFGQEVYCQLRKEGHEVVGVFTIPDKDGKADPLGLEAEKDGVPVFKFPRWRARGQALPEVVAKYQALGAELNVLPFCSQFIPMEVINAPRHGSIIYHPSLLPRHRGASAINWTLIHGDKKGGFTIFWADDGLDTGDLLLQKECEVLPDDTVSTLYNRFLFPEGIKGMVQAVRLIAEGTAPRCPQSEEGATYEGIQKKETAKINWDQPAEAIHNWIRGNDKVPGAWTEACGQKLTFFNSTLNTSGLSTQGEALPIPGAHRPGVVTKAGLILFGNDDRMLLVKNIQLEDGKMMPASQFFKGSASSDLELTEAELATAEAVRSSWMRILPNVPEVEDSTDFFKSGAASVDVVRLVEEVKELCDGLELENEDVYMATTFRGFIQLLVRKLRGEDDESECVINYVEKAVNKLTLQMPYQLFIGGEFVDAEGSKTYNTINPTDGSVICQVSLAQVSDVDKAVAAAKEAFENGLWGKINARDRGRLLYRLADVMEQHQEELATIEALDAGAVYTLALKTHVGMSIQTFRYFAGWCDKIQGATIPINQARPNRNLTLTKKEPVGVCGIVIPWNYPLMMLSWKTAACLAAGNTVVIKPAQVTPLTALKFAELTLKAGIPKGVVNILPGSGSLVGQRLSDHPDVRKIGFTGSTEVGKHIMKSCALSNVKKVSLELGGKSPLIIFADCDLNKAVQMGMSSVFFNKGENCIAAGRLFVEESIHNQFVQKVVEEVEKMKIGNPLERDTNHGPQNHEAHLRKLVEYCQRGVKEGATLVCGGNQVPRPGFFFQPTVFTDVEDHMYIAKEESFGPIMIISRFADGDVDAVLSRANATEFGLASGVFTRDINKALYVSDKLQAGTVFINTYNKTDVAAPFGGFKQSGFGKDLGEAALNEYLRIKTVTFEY

Measured: Activity

CC(C)CCn1c(CN2CCN(C(=O)c3ccco3)CC2)nc2c1c(=O)n(C)c(=O)n2C
inactive: all assays above

Reference: ChEMBL document CHEMBL3414499, “Characterization of two distinct structural classes of selective aldehyde dehydrogenase 1A1 inhibitors” (J Med Chem, 2015)
